Mass density and refractive index data for 5 compounds are collected here from the NIST ThermoML archive (doi:10.1021/je1011339).

Numbers after ± are expanded uncertainties.

For series [1] the following is noted: 298.15 K; 101.33 kPa; Liquid; Vibrating tube method.
Series [2] in a line: refractive index (Na D-line) (dimensionless). The conditions noted are these: 298.15 K; 101.33 kPa; Liquid; Standard Abbe refractometry.

The mass density is the mass of a sample divided by its volume. What is called refractive index is a measure of how strongly the sample bends light. As for `C=C(C)[C@H]1CC=C(C)CC1` [(R)-1-methyl-4-(1-methylethenyl)cyclohexene], the mass density in series [1] was found to be 838.68 ± 1.4 kg/m3. For the same compound, the refractive index in series [2] worked out at 1.47081 ± 0.00068.
For the compound `CCCCCC[n+]1ccn(C)c1.O=S(=O)([N-]S(=O)(=O)C(F)(F)F)C(F)(F)F`, the mass density in series [1] was 1372.09 ± 0.28 kg/m3. For the same compound, the refractive index in series [2] is reported as 1.42879 ± 0.00033.
Turning to `CCCCCCCCCCn1cc[n+](C)c1.O=S(=O)([N-]S(=O)(=O)C(F)(F)F)C(F)(F)F`, in series [1], the mass density is 1278.4 ± 0.23 kg/m3. For the same compound, the refractive index in series [2] is reported as 1.43584 ± 0.00033.
Taken in the same sequence, the figures for `C=CC(C)(O)CCC=C(C)C` (stereo not given) [3,7-dimethyl-1,6-octadien-3-ol] were 856.83 ± 1.4 kg/m3 and 1.45961 ± 0.00068.
Taken in the same sequence, the figures for `CCn1cc[n+](C)c1.O=S(=O)([N-]S(=O)(=O)C(F)(F)F)C(F)(F)F` were 1518.91 ± 0.36 kg/m3 and 1.42298 ± 0.00068.
